{"source": "patent US8461125B2", "about": "“Compositions and methods to treat asthma” (The Children's Hospital of Philadelphia, priority 2008, dated 2013)", "key": {"cAMP PDE4 activity": {"test_system": "cAMP PDE4 activity", "assay": "cAMP PDE activity in isolated rabbit ASM tissues after pro-asthmatic sensitization", "settings": "FIG. 7B; rabbit ASM tissues sensitized 24 hr with IgE immune complexes"}, "rabbit ASM tissues": {"test_system": "rabbit ASM tissues", "assay": "Constrictor and relaxation responsiveness in isolated rabbit ASM tissues (organ bath, isometric tension)", "settings": "rabbit ASM tissues exposed 24 hr to IgE immune complexes, pretreatment 10 μM", "from_the_text": "The following materials and methods are provided to facilitate practice of the present invention: • Materials: All chemicals were purchased from Sigma-Aldrich unless otherwise indicated. The human ASM cells were obtained from BioWhittaker, Inc. • Animals: Adult New Zealand White rabbits were used in this study, which was approved by the Biosafety and Animal Research Committee of the Joseph Stokes Research Institute at Children's Hospital of Philadelphia. The animals had no signs of respiratory disease for several weeks before the study, and their care and use were in accordance with the “Guide for the Care and Use of Laboratory Animals” prepared by the Institute of Laboratory Animal Resources, National Research Council. • Immunization protocol: Rabbits were actively immunized by an intra-peritoneal injection of 1 ml of an emulsion containing ovalbumin (OVA; 2.5 mg in PBS) mixed in equal part with adjuvant, administered each week for 3 weeks and, thereafter, every alternate week for a one month period. Non-immunized rabbits receiving injections with PBS alone served as controls. Thereafter, the rabbits were challenged by airway administration of a 3% solution of OVA. […]"}, "CD23a mRNA": {"test_system": "CD23a mRNA", "assay": "siRNA-mediated knockdown of CD23a mRNA expression in cultured human ASM cells (RT-PCR)", "assay_type": "cell-based", "settings": "100 nM each siRNA duplex; for CD23a mRNA expression (constitutive): FIG. 2, human ASM cells, control conditions, Oligofectamine-mediated transfection; for CD23a mRNA expression in IL-13-treated ASM cells / CD23a mRNA expression in vehicle-exposed ASM cells: FIG. 3, Oligofectamine transfection; for CD23a mRNA expression in IL-13-treated ASM cells: human ASM cells exposed 12 hr to IL-13 (50 ng/ml); for CD23a mRNA expression in vehicle-exposed ASM cells: human ASM cells exposed 12 hr to vehicle", "from_the_text": "The following materials and methods are provided to facilitate practice of the present invention: • Materials: All chemicals were purchased from Sigma-Aldrich unless otherwise indicated. The human ASM cells were obtained from BioWhittaker, Inc. • Animals: Adult New Zealand White rabbits were used in this study, which was approved by the Biosafety and Animal Research Committee of the Joseph Stokes Research Institute at Children's Hospital of Philadelphia. The animals had no signs of respiratory disease for several weeks before the study, and their care and use were in accordance with the “Guide for the Care and Use of Laboratory Animals” prepared by the Institute of Laboratory Animal Resources, National Research Council. • Immunization protocol: Rabbits were actively immunized by an intra-peritoneal injection of 1 ml of an emulsion containing ovalbumin (OVA; 2.5 mg in PBS) mixed in equal part with adjuvant, administered each week for 3 weeks and, thereafter, every alternate week for a one month period. Non-immunized rabbits receiving injections with PBS alone served as controls. Thereafter, the rabbits were challenged by airway administration of a 3% solution of OVA. […] Approximately 40 ml of blood was then drawn via an ear vein from each of the immunized and control rabbits for preparation of asthmatic and non-asthmatic serum samples to be used for subsequent passive sensitization of ASM tissue segments isolated from naïve rabbits, as described below. • siRNA-mediated knockdown of CD23 in cultured ASM cells: Human ASM cells were grown in SmBm media supplemented with 10% FBS (BioWhittaker) and maintained throughout in a humidified incubator containing 5% CO2 in air at 37° C. The experimental protocols involved seeding the cells into 6-well plates and, at ˜40% confluency, the medium was replaced with the reduced serum-containing medium, Opti-MEM (Invitrogen). Separate preparations of cells were then transfected twice during a 24-hr interval with each of four different siRNA duplexes targeted against human CD23, using Oligofectamine (Invitrogen) as the transfection agent. The siRNA preparations were purchased from Applied Biosystems and comprised the following nucleotide sequences:\nAdditionally, cell preparations were also transfected with either a pool of these CD23-directed siRNA duplexes, a non-targeted negative control (scrambled) siRNA duplex, or a negative control duplex labeled with the […], Cy™3, to visualize siRNA transfection efficiency. The siRNAs were applied to each well at a final concentration of 100 nM for each siRNA duplex. After 3 days, the cells were exposed for 12 hr to either vehicle alone or the pro-asthmatic cytokine, IL-13 (50 ng/ml), which is known to upregulate CD23 expression in human monocytes. The cells were subsequently examined for induced changes in mRNA expression of CD23a. • Detection of CD23 mRNA transcripts: Total RNA was extracted from the cultured ASM cells using the TRIzol method (Invitrogen), and cDNAs were isolated by RT-PCR using the SuperScript First Strand Synthesis System kit from Invitrogen, with the following oligonucleotide primer sets (Integrated DNA Technologies): for CD23a, (SEQ ID NO: 11) 5′-[…]-3′ (forward) and (SEQ ID NO: 12) 5′-[…]-3′ (reverse); and for β-actin, (SEQ ID NO: 13) 5′-[…]-3′ (forward) and (SEQ ID NO: 14) 5′-[…]-3′ (reverse). The reaction volume was 20 μl and cycling conditions used were 35 cycles of 30 sec denaturation at 95° C., followed by 30 sec annealing at 60° C. and elongation at 72° C. for 30 sec. Ex-Tag (Takara Biotechnology) was used as DNA polymerase. • Pharmacodynamic studies of constrictor and relaxation responsiveness in rabbit ASM tissues: Following initial sedation and subsequent general anesthesia with intramuscular injections of xylazine (10 mg/kg) and ketamine (50 mg/kg), respectively, rabbits were sacrificed with an intravenously administered overdose of sodium pentobarbital (100 mg/kg). […]"}}}
{"compound": "COc1ccc(C2CNC(=O)C2)cc1OC1CCCC1", "note": "(centres unmarked) [rolipram]", "values": [{"measurement": "Induced upregulation of cAMP PDE4 activity", "setting": "cAMP PDE4 activity", "value": "inhibitory effect"}, {"measurement": "Induced pro-asthmatic change in constrictor responsiveness to ACh", "setting": "rabbit ASM tissues; FIG. 5A", "value": "prevented"}, {"measurement": "Induced pro-asthmatic change in relaxation responsiveness to isoproterenol", "setting": "rabbit ASM tissues; FIG. 5B", "value": "prevented"}]}
{"compound": "#106644: siRNA duplex against human CD23 (Applied Biosystems): sense 5′-GGAGGUGACAAAGCUAAGGtt-3′, antisense 5′-CCUUAGCUUUGUCACCUCCtc-3′ (sense GGAGGUGACAAAGCUAAGGTT; antisense CCUUAGCUUUGUCACCUCCTC; chemistry not given here)", "values": [{"measurement": "CD23a mRNA expression (constitutive)", "setting": "CD23a mRNA", "value": "no effect"}, {"measurement": "CD23a mRNA expression in IL-13-treated ASM cells", "setting": "CD23a mRNA", "value": "no effect"}, {"measurement": "CD23a mRNA expression in vehicle-exposed ASM cells", "setting": "CD23a mRNA", "value": "no effect"}]}
{"compound": "#106645: siRNA duplex against human CD23 (Applied Biosystems): sense 5′-GGUGACAAAGCUAAGGAUGtt-3′, antisense 5′-CAUCCUUAGCUUUGUCACCtc-3′ (sense GGUGACAAAGCUAAGGAUGTT; antisense CAUCCUUAGCUUUGUCACCTC; chemistry not given here)", "values": [{"measurement": "CD23a mRNA expression (constitutive)", "setting": "CD23a mRNA", "value": "distinctly inhibited"}, {"measurement": "CD23a mRNA expression (constitutive)", "setting": "CD23a mRNA; listed as 106645", "value": "marked inhibition"}, {"measurement": "CD23a mRNA expression in IL-13-treated ASM cells", "setting": "CD23a mRNA", "value": "markedly inhibited"}, {"measurement": "CD23a mRNA expression in vehicle-exposed ASM cells", "setting": "CD23a mRNA", "value": "markedly inhibited"}]}
{"compound": "#111060: siRNA duplex against human CD23 (Applied Biosystems): sense 5′-GGAAUUGAACGAGAGGAACtt-3′, antisense 5′-GUUCCUCUCGUUCAAUUCCtg-3′ (sense GGAAUUGAACGAGAGGAACTT; antisense GUUCCUCUCGUUCAAUUCCTG; chemistry not given here)", "values": [{"measurement": "CD23a mRNA expression (constitutive)", "setting": "CD23a mRNA", "value": "distinctly inhibited"}, {"measurement": "CD23a mRNA expression (constitutive)", "setting": "CD23a mRNA; listed as 111060", "value": "marked inhibition"}, {"measurement": "CD23a mRNA expression in IL-13-treated ASM cells", "setting": "CD23a mRNA", "value": "markedly inhibited"}, {"measurement": "CD23a mRNA expression in vehicle-exposed ASM cells", "setting": "CD23a mRNA", "value": "markedly inhibited"}]}
{"compound": "#111062: siRNA duplex against human CD23 (Applied Biosystems): sense 5′-CGAAGCUUCAGAUUUGCUGtt-3′, antisense 5′-CAGCAAAUCUGAAGCUUCGtt-3′ (sense CGAAGCUUCAGAUUUGCUGTT; antisense CAGCAAAUCUGAAGCUUCGTT; chemistry not given here)", "values": [{"measurement": "CD23a mRNA expression (constitutive)", "setting": "CD23a mRNA", "value": "no effect"}, {"measurement": "CD23a mRNA expression in IL-13-treated ASM cells", "setting": "CD23a mRNA", "value": "no effect"}, {"measurement": "CD23a mRNA expression in vehicle-exposed ASM cells", "setting": "CD23a mRNA", "value": "no effect"}]}
